The numbers were not newly measured in US12214218B2, “Perfusion modulated tumor dose sculpting with single dose radiotherapy” (MEMORIAL SLOAN KETTERING CANCER CENTER, priority 2019, dated 2025), which cites them from elsewhere.

The term half-life denotes the time in which the quantity being followed falls by half.

Where two headings read alike, the source gives them in different places.

Regarding `Cc1cc(C)c(/C=C2\C(=O)Nc3ccccc32)[nH]1` [Semaxanib/SU5416, Semaxanib], the average half-life (in vivo) is 0.5 to 1 h.

Turning to `CNC(=O)c1ccccc1Sc1ccc2c(/C=C/c3ccccn3)n[nH]c2c1` [axitinib], for the setting “in vivo”, the average half-life was 2.5 to 6 h.

On to `COc1cc2c(Oc3ccc4[nH]c(C)cc4c3F)ncnc2cc1OCCCN1CCCC1` [cediranib], for which the average half-life (plasma half-life for cediranib) is 22 to 27 h.

Take anginex: the half-life (in vivo) is 0.833 h.

B1: rhASM: Recombinant ASM manufactured for clinical use; orphan drug status for Type B NPD (protein, UniProt P17405 47-631, looked up)
Sphingomyelin …: LALSDSRVLWAPAEAHPLSPQGHPARLHRIVPRLRDVFGWGNLTCPICKGLFTAINLGLKKEPNVARVGSVAIKLCNLLKIAPPAVCQSIVHLFEDDMVEVWRRSVLSPSEACGLLLGSTCGHWDIFSSWNISLPTVPKPPPKPPSPPAPGAPVSRILFLTDLHWDHDYLEGTDPDCADPLCCRRGSGLPPASRPGAGYWGEYSKCDLPLRTLESLLSGLGPAGPFDMVYWTGDIPAHDVWHQTRQDQLRALTTVTALVRKFLGPVPVYPAVGNHESTPVNSFPPPFIEGNHSSRWLYEAMAKAWEPWLPAEALRTLRIGGFYALSPYPGLRLISLNMNFCSRENFWLLINSTDPAGQLQWLVGELQAAEDRGDKVHIIGHIPPGHCLKSWSWNYYRIVARYENTLAAQFFGHTHVDEFEVFYDEETLSRPLAVAFLAPSATTYIGLNPGYRVYQIDGNYSGSSHVVLDHETYILNLTQANIPGAIPHWQLLYRARETYGLPNTLPTAWHNLVYRMRGDMQLFQTFWFLYHKGHPPSEPCGTPCRLATLCAQLSARADSPALCRHLMPDGSLPEAQSLWPRPLFC
As for B1, in the data set on wild type mice, the “toxicity at high doses” value is recorded as “non-toxic”.
